Test results from patent US5300284A, “Glycosaminoglycanase inhibitor andethane diol composition for maintenance of hair growth” (priority 1991, dated 1994).

Assay: Flow-through skin penetration of 14C-labelled glucarolactone
Assay type: in vitro ADME, pig
Settings: 20 hours
Text: In order to simulate human skin penetration in vivo, full thickness pig skin was used in a flow-through skin penetration cell system. For this purpose, the technique described by Bronough R L, and Stuart R F in "Methods for in vitro percutaneous absorption studies IV: The flow-throughdiffusion cell", published in J. Pharm.
This system allows for the study of percutaneous absorption from topically applied substances in a controlled manner, i.e. at controlled temperature and with constant receptor fluid flow rate. The flow-through skin penetration cell has a surface area of skin of 0.38 cm^2 exposed to a formulation containing a test substance. At time zero, 25 μl of a formulation containing tracer amounts of ^14 C-labelled glucarolactone was applied to the skin and left for 20 hours. During this period of penetration, receptor fluid flowing underneath the dermal side of the skin was collected in fractions at 2 hour intervals. At time 20 hours, the skin was vigorously washed to remove all non-absorbed material, the remaining receptor fluid in the cell also being collected at this time.
Subsequently, the piece of skin was detached from the cell and keratatomed at a thickness of about 1.3 mm. This procedure will separate the lower section of the dermis from that containing the stratum corneum, viable epidermis, upper part of dermis and neck of hair follicle. To refine further the picture of distribution of radioactivity, the upper section was subsequently tape stripped 5 times using transparent adhesive tape to remove residual radioactive materials adhering to the outer surface of the skin. All these sections were digested and counted for radioactivity. Each penetration cell therefore yielded 4 results:
i) transdermal penetration, i.e. the amount retrieved in receptor fluid flowing on the dermal side of the skin;
ii) tape strips, i.e. amounts of radio active material adhering to the skin surface;
iii) upper section of skin, i.e. remainder of stratum corneum, neck of hair follicle, viable epidermis and upper part of dermis;
iv) lower section of skin, i.e. remainder of dermis containing the remaining part of hair follicles and dermal papillae.
The results obtained from categories ii), iii) and iv) above together constitute the amounts retrieved from within the skin, i.e. dermal penetration. The results may be expressed as percentage of dose applied, or as the actual amounts delivered.
The following formulation was used to determine penetration and delivery of glucarolactone in accordance with the Bronaugh flow-through skin penetration cell technique:
Scintillation counting was employed to determine the amount of the enzyme inhibitor, glucarolactone, which had penetrated the skin to a point where it would be available to inhibit glycosaminoglycanase in the immediate environment of the hair bulb.
The results obtained are shown in the following Table 1 in which the values given represent percentages of the glucarolactone dose applied topically which actually penetrates into and through the skin and is recovered at various levels. In addition, the actual amounts of penetrated glucarolactone is given. The results shown are the average and standard error of the mean of 33 determinations.

[1] = dermal (tapes + upper + lower section), 8% w/w glucarolactone formulation, mean ± SEM of 33 determinations
[2] = lower section of skin (hair follicles, dermal papillae), 8% w/w glucarolactone formulation, mean ± SEM of 33 determinations
[3] = tape strips (skin surface), 8% w/w glucarolactone formulation, mean ± SEM of 33 determinations
[4] = total (transdermal + dermal), 8% w/w glucarolactone formulation
[5] = transdermal (receptor fluid), 8% w/w glucarolactone, 10% ethane diol formulation, mean ± SEM of 33 determinations
[6] = upper section of skin, 8% w/w glucarolactone formulation, mean ± SEM of 33 determinations

In the case of O=C(O)[C@@H](O)[C@H]1OC(=O)[C@H](O)[C@H]1O [glucarolactone], the “Actual Amount GL Delivered, Dermal” value [1] was 72.87 ± 16.62 µg, the “Percentage of Applied Dose, Dermal” value [1] was 3.719 ± 0.848% and the “Actual Amount GL Delivered, lower section” value [2] was 56.63 ± 14.33 µg. The “Percentage of Applied Dose, lower section” value [2] was 2.890 ± 0.731%, the “Actual Amount GL Delivered, tapes” value [3] was 2.38 ± 0.39 µg and the “Percentage of Applied Dose, tapes” value [3] was 0.122 ± 0.020%. For the same molecule, the “Actual Amount GL Delivered, Total” value [4] was 80.67 µg, the “Percentage of Applied Dose, Total” value [4] was 4.117% and the “Actual Amount GL Delivered, Transdermal” value [5] was 7.80 ± 2.47 µg. The “Percentage of Applied Dose, Transdermal” value [5] was 0.398 ± 0.126%, the “Actual Amount GL Delivered, upper section” value [6] was 13.86 ± 3.00 µg and the “Percentage of Applied Dose, upper section” value [6] was 0.707 ± 0.153%.
